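Method: 48-hour compound exposure of cells in 96-well plates, five concentrations, linear interpolation of endpoints. GI50 is the concentration that inhibits growth by half.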 Active and inactive are the calls of the source. Rule as the data show it: active = GI50 up to about 1.1 µM and inactive = higher.
Columns and labels:
Test in all cases: NCI anticancer screen, dose series, 48 h
786-0 = system: 786-0
A498 = system: A498
A549 = system: A549
ACHN = system: ACHN
CCRF-CEM = system: CCRF-CEM
COLO 205 = system: COLO 205
DLD-1 = system: DLD-1
DMS-114 = system: DMS-114
DMS-273 = system: DMS-273
EKVX = system: EKVX
HCC 2998 = system: HCC 2998
HCT-15 = system: HCT-15
HL-60 = system: HL-60
HOP-62 = system: HOP-62
HOP-92 = system: HOP-92
HT-29 = system: HT-29
IGROV-1 = system: IGROV-1
K562 = system: K562
KM12 = system: KM12
LOX IMVI = system: LOX IMVI
LXFL 529 = system: LXFL 529
M14 = system: M14
M19-MEL = system: M19-MEL
MOLT-4 = system: MOLT-4
Malme-3M = system: Malme-3M
NCI-H226 = system: NCI-H226
NCI-H23 = system: NCI-H23
NCI-H460 = system: NCI-H460
NCI-H522 = system: NCI-H522
OVCAR-3 = system: OVCAR-3
OVCAR-4 = system: OVCAR-4
OVCAR-5 = system: OVCAR-5
OVCAR-8 = system: OVCAR-8
RPMI-8226 = system: RPMI-8226
RXF 393 = system: RXF 393
RXF 631 = system: RXF 631
SF-268 = system: SF-268
SF-295 = system: SF-295
SF-539 = system: SF-539
SK-MEL-28 = system: SK-MEL-28
SK-MEL-2 = system: SK-MEL-2
SK-MEL-5 = system: SK-MEL-5
SK-OV-3 = system: SK-OV-3
SN12C = system: SN12C
SNB-19 = system: SNB-19
SNB-75 = system: SNB-75
SNB-78 = system: SNB-78
SR = system: SR
SW-620 = system: SW-620
TK-10 = system: TK-10
U-251 = system: U-251
UACC-257 = system: UACC-257
UACC-62 = system: UACC-62
UO-31 = system: UO-31
XF498 = system: XF498

Compound: CC1(O)C(C)(O)C2(C)O[Te]3(OC12C)OC1(C)C(C)(O)C(C)(O)C1(C)O3 (stereo not given)
- GI50 (786-0): 56.8 µM (inactive)
- GI50 (A498): > 10 µM (inactive)
- GI50 (A549): 6.67 µM (inactive)
- GI50 (ACHN): 31.3 µM (inactive)
- GI50 (CCRF-CEM): 2.41 µM (inactive)
- GI50 (COLO 205): > 100 µM (inactive)
- GI50 (DLD-1): 33 µM (inactive)
- GI50 (DMS-114): 20 µM (inactive)
- GI50 (DMS-273): 19.3 µM (inactive)
- GI50 (EKVX): > 100 µM (inactive)
- GI50 (HCC 2998): 42.7 µM (inactive)
- GI50 (HCT-15): 11.5 µM
- GI50 (HL-60): 10.6 µM (inactive)
- GI50 (HOP-62): > 100 µM (inactive)
- GI50 (HOP-92): 31 µM (inactive)
- GI50 (HT-29): 27.3 µM (inactive)
- GI50 (IGROV-1): 12.3 µM (inactive)
- GI50 (K562): 9.79 µM (inactive)
- GI50 (KM12): 23.7 µM (inactive)
- GI50 (LOX IMVI): 4.41 µM (inactive)
- GI50 (LXFL 529): 16 µM (inactive)
- GI50 (M14): > 100 µM (inactive)
- GI50 (M19-MEL): 22.1 µM (inactive)
- GI50 (MOLT-4): 11.8 µM (inactive)
- GI50 (Malme-3M): 96.2 µM (inactive)
- GI50 (NCI-H226): 29.4 µM (inactive)
- GI50 (NCI-H23): 14.8 µM (inactive)
- GI50 (NCI-H460): 3.32 µM (inactive)
- GI50 (NCI-H522): 17.8 µM (inactive)
- GI50 (OVCAR-3): 20.2 µM (inactive)
- GI50 (OVCAR-4): 24.3 µM (inactive)
- GI50 (OVCAR-5): 15.3 µM (inactive)
- GI50 (OVCAR-8): 16.1 µM (inactive)
- GI50 (RPMI-8226): 15.5 µM (inactive)
- GI50 (RXF 393): 12.4 µM (inactive)
- GI50 (RXF 631): 18.5 µM (inactive)
- GI50 (SF-268): > 10 µM (inactive)
- GI50 (SF-295): 15.3 µM (inactive)
- GI50 (SF-539): 29.1 µM (inactive)
- GI50 (SK-MEL-28): 16.2 µM (inactive)
- GI50 (SK-MEL-2): 44.6 µM (inactive)
- GI50 (SK-MEL-5): 15 µM (inactive)
- GI50 (SK-OV-3): > 10 µM (inactive)
- GI50 (SN12C): 23.1 µM (inactive)
- GI50 (SNB-19): 28.1 µM (inactive)
- GI50 (SNB-75): > 100 µM (inactive)
- GI50 (SNB-78): > 100 µM (inactive)
- GI50 (SR): 17.2 µM (inactive)
- GI50 (SW-620): > 10 µM (inactive)
- GI50 (TK-10): 23.1 µM (inactive)
- GI50 (U-251): 10.8 µM (inactive)
- GI50 (UACC-257): > 100 µM (inactive)
- GI50 (UACC-62): 35.6 µM (inactive)
- GI50 (UO-31): 27.5 µM (inactive)
- GI50 (XF498): > 100 µM (inactive)

Reference: ChEMBL document CHEMBL1201862, “PubChem BioAssay data set” (2004)
